The text below walks through data of patent US8163775B2, “Allosteric modulators of metabotropic glutamate receptors” (Addex Pharma SA, priority 2003, dated 2012).

Each structure is given as a SMILES string.

For data set [1], the target named is T1, mGluR5 (Rattus norvegicus, UniProt P31424).
T1 construct: a functional expression of mGluR5 receptors; endogenous in cells; host or cells: primary cortical astrocytes from Sprague-Dawley rat embryos (15 days), treated with bFGF and EGF
Description: mGluR5 assay on rat cultured cortical astrocytes (Ca2+ mobilization, FLIPR). The class given is cell-based. To be noted: for increase of 1 μM glutamate-induced Ca2+ mobilization: 3 μM compound, 1 μM glutamate (EC20), rat cultured astrocytes, FIG. 1; for agonistic activity in the absence of glutamate: no glutamate, compared to buffer value. The protocol: For subsequent seeding, the FCS supplementation was reduced to 10%. After 12 days, cells were subplated by trypsinisation onto poly-D-lysine precoated 384-well plates at a density of 20.000 cells per well in culture buffer supplemented with […] βFGF (basic fibroblast growth factor) (Invitrogen, Basel, Switzerland) and 10 ng/ml EGF (epidermal growth factor) (Invitrogen, Basel, Switzerland).
After 60 min of loading with 4 uM Fluo-4 (TefLabs, Austin, Tex.), the cells were washed three times with 50 μl of PBS Buffer and resuspended in 45 μl of Assay Buffer. The plates were then transferred to a Fluorometric Imaging Plate Reader (FLIPR, Molecular Devices, Sunnyvale, Calif.) for the assessment of intracellular calcium flux. […] The final DMSO concentration in the assay was 0.3%. In each experiment, fluorescence was then monitored as a function of time for 3 minutes and the data analyzed using Microsoft Excel and GraphPad Prism. Each data point was also measured two times.
The concentration-response curves of representative compounds of the present invention in the presence of EC20 of glutamate were generated using the Prism GraphPad program (Graph Pad Software Inc, San Diego, USA).

In data set [2] the target is mGluR5 (Homo sapiens, UniProt P41594). The note with it: cited from earlier work.
Sequence of mGluR5 (Homo sapiens, UniProt P41594) (P41594 21-1212): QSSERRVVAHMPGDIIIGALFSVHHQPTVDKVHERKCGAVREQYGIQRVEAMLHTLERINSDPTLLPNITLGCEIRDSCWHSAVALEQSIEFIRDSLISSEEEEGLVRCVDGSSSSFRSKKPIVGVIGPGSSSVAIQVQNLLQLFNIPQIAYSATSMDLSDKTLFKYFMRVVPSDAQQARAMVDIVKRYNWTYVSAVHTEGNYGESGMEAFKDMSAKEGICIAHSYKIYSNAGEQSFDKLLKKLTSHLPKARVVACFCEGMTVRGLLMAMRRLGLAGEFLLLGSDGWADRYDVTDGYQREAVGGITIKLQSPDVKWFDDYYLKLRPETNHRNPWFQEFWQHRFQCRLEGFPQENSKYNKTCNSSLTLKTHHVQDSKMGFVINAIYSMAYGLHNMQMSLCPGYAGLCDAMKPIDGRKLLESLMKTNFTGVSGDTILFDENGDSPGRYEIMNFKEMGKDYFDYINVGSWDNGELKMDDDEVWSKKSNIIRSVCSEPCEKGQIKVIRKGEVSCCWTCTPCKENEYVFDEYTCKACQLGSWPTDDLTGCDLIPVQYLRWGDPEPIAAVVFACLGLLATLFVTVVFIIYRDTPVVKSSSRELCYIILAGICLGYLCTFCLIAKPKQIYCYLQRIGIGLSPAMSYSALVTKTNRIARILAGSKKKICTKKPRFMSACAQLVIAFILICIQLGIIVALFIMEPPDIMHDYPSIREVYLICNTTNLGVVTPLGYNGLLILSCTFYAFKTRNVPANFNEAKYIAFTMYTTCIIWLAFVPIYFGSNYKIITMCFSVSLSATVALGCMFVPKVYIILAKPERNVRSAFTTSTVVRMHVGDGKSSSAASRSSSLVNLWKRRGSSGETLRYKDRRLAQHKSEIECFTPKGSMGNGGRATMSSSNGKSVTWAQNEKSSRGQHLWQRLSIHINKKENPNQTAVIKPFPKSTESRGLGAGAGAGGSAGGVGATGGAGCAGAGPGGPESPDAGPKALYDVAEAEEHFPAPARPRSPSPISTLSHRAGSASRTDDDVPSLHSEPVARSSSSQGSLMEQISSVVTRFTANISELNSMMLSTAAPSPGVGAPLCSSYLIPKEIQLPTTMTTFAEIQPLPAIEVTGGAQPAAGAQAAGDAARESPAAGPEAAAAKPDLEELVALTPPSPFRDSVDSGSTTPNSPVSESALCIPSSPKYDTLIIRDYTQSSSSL
Data set [3] concerns the target orthosteric glutamate site of mGluR5 (Homo sapiens, UniProt P41594). To be noted: cited from earlier work.

T1 sequence (P31424 21-1203): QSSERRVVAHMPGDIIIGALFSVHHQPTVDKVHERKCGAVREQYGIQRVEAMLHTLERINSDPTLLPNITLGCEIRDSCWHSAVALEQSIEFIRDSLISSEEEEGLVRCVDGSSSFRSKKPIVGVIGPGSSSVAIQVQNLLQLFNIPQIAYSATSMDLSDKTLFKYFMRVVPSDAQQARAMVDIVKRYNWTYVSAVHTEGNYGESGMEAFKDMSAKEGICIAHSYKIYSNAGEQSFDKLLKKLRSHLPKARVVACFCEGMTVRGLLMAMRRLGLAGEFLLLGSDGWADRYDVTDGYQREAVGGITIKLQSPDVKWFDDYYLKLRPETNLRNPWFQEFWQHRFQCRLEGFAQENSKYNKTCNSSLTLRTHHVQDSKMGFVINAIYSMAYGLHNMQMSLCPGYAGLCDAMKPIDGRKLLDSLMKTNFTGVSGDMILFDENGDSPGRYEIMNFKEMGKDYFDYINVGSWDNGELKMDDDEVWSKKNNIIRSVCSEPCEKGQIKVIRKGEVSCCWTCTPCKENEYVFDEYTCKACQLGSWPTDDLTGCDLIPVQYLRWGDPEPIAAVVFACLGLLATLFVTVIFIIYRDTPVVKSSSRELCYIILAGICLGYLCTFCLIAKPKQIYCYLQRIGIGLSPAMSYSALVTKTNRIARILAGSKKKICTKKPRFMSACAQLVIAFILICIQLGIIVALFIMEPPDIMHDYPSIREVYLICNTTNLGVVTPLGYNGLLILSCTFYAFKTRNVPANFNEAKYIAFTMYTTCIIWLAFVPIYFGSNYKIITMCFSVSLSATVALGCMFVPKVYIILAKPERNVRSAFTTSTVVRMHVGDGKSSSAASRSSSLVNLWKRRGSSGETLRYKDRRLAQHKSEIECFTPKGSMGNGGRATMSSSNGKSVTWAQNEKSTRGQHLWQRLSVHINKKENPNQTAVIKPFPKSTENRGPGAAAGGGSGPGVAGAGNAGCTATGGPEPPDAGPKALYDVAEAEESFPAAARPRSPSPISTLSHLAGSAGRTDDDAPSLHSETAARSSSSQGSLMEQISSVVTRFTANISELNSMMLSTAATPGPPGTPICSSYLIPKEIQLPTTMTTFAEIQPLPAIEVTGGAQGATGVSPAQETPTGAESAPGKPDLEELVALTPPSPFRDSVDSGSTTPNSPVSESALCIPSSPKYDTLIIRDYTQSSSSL
Sequence of orthosteric glutamate site of mGluR5 (P41594 21-1212): as the sequence (P41594 21-1212) above

For the molecule `O=C(c1ccc(F)cc1)N1CCC[C@H](c2nc(-c3ccccn3)no2)C1` [Example 56, (4-Fluoro-phenyl)-[(S)-3-(3-pyridin-2-yl-[1,2,4]oxadiazol-5-yl)-piperidin-1-yl]-methanone], at mGluR5 [1], the “increase of 1 μM glutamate-induced Ca2+ mobilization” value was “increase” and the “agonistic activity in the absence of glutamate” value is on record as “no statistically significant agonistic activity”. `O=C(c1ccc(F)cc1)N1CCC[C@H](c2nc(-c3ccccc3F)no2)C1` [Example 55, (4-Fluoro-phenyl)-{(S)-3-[3-(2-fluoro-phenyl)-[1,2,4]oxadiazol-5-yl]-piperidin-1-yl}-methanone]: at mGluR5 [1], the “increase of 1 μM glutamate-induced Ca2+ mobilization” value is given as “increase” and the “agonistic activity in the absence of glutamate” value was “no statistically significant agonistic activity”. With `Fc1cccc(C=NN=Cc2cccc(F)c2)c1` [DFB, 3,3′-Difluorobenzaldazine], the “in vitro potency as mGluR5 positive allosteric modulator” value on mGluR5 [2] is listed as “low in vitro potency”. The “inhibition of the binding of [3H]-quisqualate to the orthosteric glutamate site” value in data set [3] is recorded as “not able to inhibit”. Consider `O=C(c1ccc(F)c(F)c1)N1CCC[C@H](c2nc(-c3ccc(F)cc3)no2)C1` [Example 35, (3,4-Difluoro-phenyl)-{(S)-3-[3-(4-fluoro-phenyl)-[1,2,4]oxadiazol-5-yl]-piperidin-1-yl}-methanone], for which the melting point fell in the range of 120 to 121 °C. The same measure, in the same setting: the result for `Cc1ncsc1C(=O)N1CCC[C@H](c2nc(-c3ccc(F)cc3)no2)C1` [Example 38, {(S)-3-[3-(4-Fluoro-phenyl)-1,2,4-oxadiazol-5-yl]-piperidin-1-yl}-(4-methyl-thiazol-5-yl)-methanone] reads 122 to 124 °C.
